Source: patent US20220313715A1, “PHARMACEUTICAL COMPOSITION, FOR PREVENTING OR TREATING HEPATIC FIBROSIS, COMPRISING 8-OHDG” (GIL MEDICAL CENTER, priority 2016, published 2022)

Columns and labels:
α-SMA [1] = experiment: Western blot of α-SMA protein in liver tissue of liver fibrosis animal model; assay type: in vivo, Sprague-Dawley rats; conditions: BDL rats, 60 mg/kg/day for 3 weeks vs Experimental Group 1, GAPDH internal control, FIG. 3b
Description: 250 g to 300 g male Sprague-Dawley rats were subject to bile duct ligation (BDL) and atresia of bile duct to prepare liver fibrosis animal models. Six of the animal models were laparotomized, and the proximal and distal bile ducts were ligated and then cut in the middle to separate the bile duct. The animal models were then sutured and allowed to recover to be used for Experimental Group 1. Six animal models treated in the same manner as experimental group 1 were sutured and administered with 8-OHdG in the amount of 60 mg/kg/day for 3 weeks to be used for Experimental Group 2. The animal models of each of the control and experimental groups were sutured and raised for 3 weeks, followed by taking blood and liver tissues therefrom to be used for subsequent experimental procedures. […] GAPDH protein was used as an internal control.

α-SMA [2] = experiment: Immunofluorescent staining of α-SMA (hepatic stellate cell activity index) in liver tissue of liver fibrosis animal model; assay type: in vivo, Sprague-Dawley rats; conditions: BDL rats, 60 mg/kg/day for 3 weeks vs Experimental Group 1; immunofluorescent co-staining with NOX1 (FIG. 3c) or NOX2 (FIG. 3d)
Description: (§1) 250 g to 300 g male Sprague-Dawley rats were subject to bile duct ligation (BDL) and atresia of bile duct to prepare liver fibrosis animal models. Six of the animal models were laparotomized, and the proximal and distal bile ducts were ligated and then cut in the middle to separate the bile duct. The animal models were then sutured and allowed to recover to be used for Experimental Group 1. Six animal models treated in the same manner as experimental group 1 were sutured and administered with 8-OHdG in the amount of 60 mg/kg/day for 3 weeks to be used for Experimental Group 2. The animal models of each of the control and experimental groups were sutured and raised for 3 weeks, followed by taking blood and liver tissues therefrom to be used for subsequent experimental procedures.

TGF-β = experiment: qPCR mRNA level of TGF-β in liver tissue of liver fibrosis animal model; assay type: in vivo, Sprague-Dawley rats; conditions: BDL rats, 60 mg/kg/day for 3 weeks vs Experimental Group 1, GAPDH internal control, FIG. 2a
Description: as §1, with “procedures. […]” for “procedures.”

collagen = experiment: Picro Sirius Red staining of collagen in liver tissue of liver fibrosis animal model; assay type: in vivo, Sprague-Dawley rats; conditions: BDL rats, 60 mg/kg/day for 3 weeks vs Experimental Group 1; Picro Sirius Red stain, ImageJ; FIG. 3a
Description: as §1

α-SMA [3] = experiment: qPCR mRNA level of α-SMA in liver tissue of liver fibrosis animal model; assay type: in vivo, Sprague-Dawley rats; conditions: BDL rats, 60 mg/kg/day for 3 weeks vs Experimental Group 1, FIG. 2d
Description: as §1, with “procedures. […]” for “procedures.”

TIMP-1 = experiment: qPCR mRNA level of TIMP-1 in liver tissue of liver fibrosis animal model; assay type: in vivo, Sprague-Dawley rats; conditions: BDL rats, 60 mg/kg/day for 3 weeks vs Experimental Group 1, FIG. 2b
Description: as §1, with “procedures. […]” for “procedures.”

NOX1 [4] = experiment: Immunofluorescent staining of NOX1 in liver tissue of liver fibrosis animal model; assay type: in vivo, Sprague-Dawley rats; conditions: BDL rats, 60 mg/kg/day for 3 weeks vs Experimental Group 1, FIG. 3c
Description: as §1

Collagen Iα1 = experiment: qPCR mRNA level of collagen in liver tissue of liver fibrosis animal model; assay type: in vivo, Sprague-Dawley rats; conditions: BDL rats, 60 mg/kg/day for 3 weeks vs Experimental Group 1, FIG. 2c
Description: as §1, with “procedures. […]” for “procedures.”

NOX2 [5] = experiment: qPCR mRNA level of NOX2 in liver tissue of liver fibrosis animal model; assay type: in vivo, Sprague-Dawley rats; conditions: BDL rats, 60 mg/kg/day for 3 weeks vs Experimental Group 1, FIG. 2f
Description: as §1, with “procedures. […]” for “procedures.”

NOX1 [6] = experiment: qPCR mRNA level of NOX1 in liver tissue of liver fibrosis animal model; assay type: in vivo, Sprague-Dawley rats; conditions: BDL rats, 60 mg/kg/day for 3 weeks vs Experimental Group 1, FIG. 2e
Description: as §1, with “procedures. […]” for “procedures.”

NOX2 [7] = experiment: Immunofluorescent staining of NOX2 in liver tissue of liver fibrosis animal model; assay type: in vivo, Sprague-Dawley rats; conditions: BDL rats, 60 mg/kg/day for 3 weeks vs Experimental Group 1, FIG. 3d
Description: as §1

hydroxyproline = experiment: Hydroxyproline level in liver tissue of bile duct ligation liver fibrosis animal model; assay type: in vivo, Sprague-Dawley rats; conditions: BDL rats, 8-OHdG 60 mg/kg/day for 3 weeks (Experimental Group 2) vs BDL only (Experimental Group 1); absorbance at 560 nm; FIG. 1
Description: as §1, with “models. […]” for “models.”

RAC1 = RAC1 (Homo sapiens, UniProt P63000); conditions: binds to RAC1-GTP through competition with GTP; leads to inhibition of activity of NOX complex; cited from earlier work

Nc1nc2c(nc(O)n2[C@H]2C[C@H](O)[C@@H](CO)O2)c(=O)[nH]1 [8-OHdG, 8-hydroxydeoxyguanosine]
inhibits: RAC1 activation (RAC1)
reduced: protein level of α-SMA in the liver tissue (α-SMA [1]) | protein level of α-SMA used as a hepatic stellate cell activity index (α-SMA [2]) | mRNA level of TGF-β in the liver tissue (TGF-β) | protein level of collagen in the liver tissue (collagen) | mRNA level of α-SMA in the liver tissue (α-SMA [3]) | mRNA level of TIMP-1 in the liver tissue (TIMP-1) | protein level of NOX1 in the liver tissue (NOX1 [4]) | mRNA level of collagen in the liver tissue (Collagen Iα1) | mRNA level of NOX2 in the liver tissue (NOX2 [5]) | mRNA level of NOX1 in the liver tissue (NOX1 [6]) | protein level of NOX2 in the liver tissue (NOX2 [7]) | level of hydroxyproline in the liver tissue (hydroxyproline)
